Values of other authors in patent publication US10327463B2 (priority 2015, dated 2019).
Structures can show the parent of a compound that is named as a salt.

Experiments:
Listeria monocytogenes [1] = conditions: alone or with additional antimicrobials; turkey slurries with and without sodium nitrite
Listeria monocytogenes [2] = conditions: maximum allowed level of 156 ppm, without adjunct antimicrobials
Clostridium species = conditions: cured products, processed meat formulations

## CC(=O)O [acetic acid or its salt, acetic acid]
C. perfringens
  inhibition of C. perfringens: failed to inhibit C. perfringens

## CC(=O)O.CC(=O)[O-].[Na+] [sodium diacetate]
Listeria monocytogenes [1]
  level effective in controlling Listeria monocytogenes: 0.3-0.5%

## O=NO [sodium nitrite]
Listeria monocytogenes [2]
  inhibition of Listeria monocytogenes: insufficient for the inhibition of Listeria monocytogenes
Clostridium species
  level sufficient for the inhibition of Clostridium species: approx. 50 ppm
